# Experimental data taken from ChEMBL document CHEMBL5696441 (Nat Chem Biol, 2011).
# Assays:
# [1] = molecular target: Cyclin-dependent kinase 8 (Homo sapiens) (UniProt P49336); assay: Inhibition of CDK8 (unknown origin) assessed as remaining activity at 1 uM by Kinome scan method relative to control
# [2] = molecular target: Tyrosine-protein kinase CSK (Homo sapiens) (UniProt P41240); assay: Inhibition of CSK (unknown origin) assessed as remaining activity at 1 uM by Kinome scan method relative to control
# Tyrosine-protein kinase CSK (Homo sapiens), sequence (P41240 2-450 limits assumed): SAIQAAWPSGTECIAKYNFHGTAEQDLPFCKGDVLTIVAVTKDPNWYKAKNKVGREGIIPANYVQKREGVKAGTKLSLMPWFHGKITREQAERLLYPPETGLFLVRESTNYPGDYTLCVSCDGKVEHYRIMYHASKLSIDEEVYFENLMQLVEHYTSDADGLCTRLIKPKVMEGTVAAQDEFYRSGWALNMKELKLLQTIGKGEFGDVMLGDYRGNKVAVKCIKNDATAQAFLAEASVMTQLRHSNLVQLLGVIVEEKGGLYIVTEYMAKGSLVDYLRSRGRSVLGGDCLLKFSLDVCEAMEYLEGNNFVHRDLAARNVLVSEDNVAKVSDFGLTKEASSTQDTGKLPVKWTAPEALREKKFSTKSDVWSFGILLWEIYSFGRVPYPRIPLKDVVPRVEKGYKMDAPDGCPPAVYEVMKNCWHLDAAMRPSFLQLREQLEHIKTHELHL
# [3] = test system: Epidermal growth factor receptor (Homo sapiens), P00533 [UNDEFINED MUTATION]; assay: Inhibition of EGFR S752-I759del mutant (unknown origin) assessed as remaining activity at 1 uM by Kinome scan method relative to control
# Epidermal growth factor receptor (Homo sapiens), P00533 [UNDEFINED MUTATION], sequence (P00533 whole entry, looked up, stated change not applied): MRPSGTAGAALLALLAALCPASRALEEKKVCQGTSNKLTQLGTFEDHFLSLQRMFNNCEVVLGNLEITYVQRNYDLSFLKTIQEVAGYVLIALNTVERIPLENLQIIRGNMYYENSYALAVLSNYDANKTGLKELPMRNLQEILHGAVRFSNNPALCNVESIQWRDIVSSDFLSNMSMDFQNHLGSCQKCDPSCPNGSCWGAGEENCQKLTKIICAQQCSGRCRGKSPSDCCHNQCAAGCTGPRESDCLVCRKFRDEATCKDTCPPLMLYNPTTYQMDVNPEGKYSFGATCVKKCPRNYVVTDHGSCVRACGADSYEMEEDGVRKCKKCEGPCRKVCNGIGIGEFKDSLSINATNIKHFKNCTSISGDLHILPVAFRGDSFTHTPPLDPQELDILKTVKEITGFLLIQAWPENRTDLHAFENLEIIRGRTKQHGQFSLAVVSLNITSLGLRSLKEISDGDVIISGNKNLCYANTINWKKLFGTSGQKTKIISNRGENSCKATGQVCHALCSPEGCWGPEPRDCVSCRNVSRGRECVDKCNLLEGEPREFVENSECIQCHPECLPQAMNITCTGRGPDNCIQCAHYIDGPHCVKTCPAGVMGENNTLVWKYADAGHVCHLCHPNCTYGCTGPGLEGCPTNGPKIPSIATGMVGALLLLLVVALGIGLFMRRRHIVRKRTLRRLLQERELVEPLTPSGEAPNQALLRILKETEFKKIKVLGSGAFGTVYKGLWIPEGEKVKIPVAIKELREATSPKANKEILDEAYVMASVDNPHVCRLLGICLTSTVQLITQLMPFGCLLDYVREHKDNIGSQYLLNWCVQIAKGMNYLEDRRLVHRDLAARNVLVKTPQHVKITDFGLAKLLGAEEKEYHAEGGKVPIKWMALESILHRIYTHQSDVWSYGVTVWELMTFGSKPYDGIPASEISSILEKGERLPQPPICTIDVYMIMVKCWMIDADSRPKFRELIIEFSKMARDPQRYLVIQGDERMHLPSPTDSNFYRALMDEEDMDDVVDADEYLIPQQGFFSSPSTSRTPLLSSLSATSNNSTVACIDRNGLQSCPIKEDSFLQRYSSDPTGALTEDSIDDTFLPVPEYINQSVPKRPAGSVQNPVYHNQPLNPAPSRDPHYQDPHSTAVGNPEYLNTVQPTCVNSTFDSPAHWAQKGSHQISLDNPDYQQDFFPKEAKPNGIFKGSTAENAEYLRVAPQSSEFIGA
# [4] = molecular target: Vascular endothelial growth factor receptor 3 (Homo sapiens) (UniProt P35916); assay: Inhibition of FLT4 (unknown origin) assessed as remaining activity at 1 uM by Kinome scan method relative to control
# Vascular endothelial growth factor receptor 3 (Homo sapiens), sequence (P35916 whole entry): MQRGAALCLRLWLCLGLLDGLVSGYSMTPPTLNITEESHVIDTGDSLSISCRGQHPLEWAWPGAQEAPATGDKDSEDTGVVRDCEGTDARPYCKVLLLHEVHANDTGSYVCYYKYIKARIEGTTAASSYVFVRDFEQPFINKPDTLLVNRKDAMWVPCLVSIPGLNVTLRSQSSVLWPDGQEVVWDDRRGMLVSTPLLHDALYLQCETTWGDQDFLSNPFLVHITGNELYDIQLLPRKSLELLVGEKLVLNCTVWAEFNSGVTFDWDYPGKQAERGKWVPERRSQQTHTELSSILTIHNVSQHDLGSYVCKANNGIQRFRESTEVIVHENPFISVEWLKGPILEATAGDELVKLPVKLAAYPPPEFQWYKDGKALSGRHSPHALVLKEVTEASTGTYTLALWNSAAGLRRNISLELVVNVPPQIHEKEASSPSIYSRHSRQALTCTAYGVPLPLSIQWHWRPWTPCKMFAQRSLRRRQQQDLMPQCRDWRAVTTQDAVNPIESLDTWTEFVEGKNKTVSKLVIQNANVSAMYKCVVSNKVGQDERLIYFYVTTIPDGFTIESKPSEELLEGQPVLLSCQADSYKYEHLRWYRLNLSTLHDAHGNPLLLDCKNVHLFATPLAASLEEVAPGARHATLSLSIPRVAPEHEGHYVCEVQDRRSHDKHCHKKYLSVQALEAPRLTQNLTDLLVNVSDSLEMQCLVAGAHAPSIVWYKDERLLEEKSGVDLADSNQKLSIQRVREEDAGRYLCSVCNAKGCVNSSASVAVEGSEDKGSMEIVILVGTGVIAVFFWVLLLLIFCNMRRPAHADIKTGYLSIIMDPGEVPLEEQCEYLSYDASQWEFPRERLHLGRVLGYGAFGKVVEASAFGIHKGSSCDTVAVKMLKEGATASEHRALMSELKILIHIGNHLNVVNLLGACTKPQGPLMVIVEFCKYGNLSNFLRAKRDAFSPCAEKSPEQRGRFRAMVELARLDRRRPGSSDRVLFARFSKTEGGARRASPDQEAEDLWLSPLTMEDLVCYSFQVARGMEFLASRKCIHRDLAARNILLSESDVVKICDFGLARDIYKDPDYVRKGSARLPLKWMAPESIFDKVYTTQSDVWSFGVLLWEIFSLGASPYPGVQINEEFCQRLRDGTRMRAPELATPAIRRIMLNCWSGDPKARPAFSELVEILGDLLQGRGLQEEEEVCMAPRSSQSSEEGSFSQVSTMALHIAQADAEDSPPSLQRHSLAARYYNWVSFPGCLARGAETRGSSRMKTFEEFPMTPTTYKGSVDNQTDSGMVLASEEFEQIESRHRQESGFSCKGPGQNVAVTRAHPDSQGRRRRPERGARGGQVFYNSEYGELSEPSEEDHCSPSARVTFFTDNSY
# [5] = test system: Mast/stem cell growth factor receptor Kit (Homo sapiens), P10721 [V559D]; assay: Inhibition of KIT V559D mutant (unknown origin) assessed as remaining activity at 1 uM by Kinome scan method relative to control
# [6] = molecular target: Mitogen-activated protein kinase kinase kinase 13 (Homo sapiens) (UniProt O43283); assay: Inhibition of LZK (unknown origin) assessed as remaining activity at 1 uM by Kinome scan method relative to control
# [7] = molecular target: MAP kinase-activated protein kinase 5 (Homo sapiens) (UniProt Q8IW41); assay: Inhibition of MAPKAPK5 (unknown origin) assessed as remaining activity at 1 uM by Kinome scan method relative to control
# [8] = molecular target: Serine/threonine-protein kinase NIM1 (Homo sapiens) (UniProt Q8IY84); assay: Inhibition of NIM1 (unknown origin) assessed as remaining activity at 1 uM by Kinome scan method relative to control
# [9] = molecular target: Uncharacterized serine/threonine-protein kinase SBK3 (Homo sapiens) (UniProt P0C264); assay: Inhibition of SgK110 (unknown origin) assessed as remaining activity at 1 uM by Kinome scan method relative to control
# [10] = molecular target: CDK9/cyclin T1 (Homo sapiens) (UniProt O60563+P50750); assay: Inhibition of human CDK9/CyclinT1 assessed as residual activity at 1 uM using RBER-CHKtide as substrate in presence of 33P-ATP by ProQinase assay relative to control; format: protein-complex assay
# [11] = molecular target: Serine/threonine-protein kinase Chk2 (Homo sapiens) (UniProt O96017); assay: Inhibition of human CHK2 assessed as residual activity at 1 uM using bio-4xCHKT as substrate in presence of 33P-ATP by ProQinase assay relative to control
# [12] = molecular target: Discoidin domain-containing receptor 2 (Homo sapiens) (UniProt Q16832); assay: Inhibition of human DDR2 assessed as residual activity at 1 uM using poly(Ala,Glu,Lys,Tyr)6:2:5:1 as substrate in presence of 33P-ATP by ProQinase assay relative to control
# [13] = test system: Epidermal growth factor receptor (Homo sapiens), P00533 [UNDEFINED MUTATION]; assay: Inhibition of human EGFR d752-759 mutant assessed as residual activity at 1 uM using PolyEY as substrate in presence of 33P-ATP by ProQinase assay relative to control
# [14] = molecular target: Receptor tyrosine-protein kinase erbB-4 (Homo sapiens) (UniProt Q15303); assay: Inhibition of human ERBB4 assessed as residual activity at 1 uM using polyEy as substrate in presence of 33P-ATP by ProQinase assay relative to control
# Receptor tyrosine-protein kinase erbB-4 (Homo sapiens), sequence (Q15303 whole entry): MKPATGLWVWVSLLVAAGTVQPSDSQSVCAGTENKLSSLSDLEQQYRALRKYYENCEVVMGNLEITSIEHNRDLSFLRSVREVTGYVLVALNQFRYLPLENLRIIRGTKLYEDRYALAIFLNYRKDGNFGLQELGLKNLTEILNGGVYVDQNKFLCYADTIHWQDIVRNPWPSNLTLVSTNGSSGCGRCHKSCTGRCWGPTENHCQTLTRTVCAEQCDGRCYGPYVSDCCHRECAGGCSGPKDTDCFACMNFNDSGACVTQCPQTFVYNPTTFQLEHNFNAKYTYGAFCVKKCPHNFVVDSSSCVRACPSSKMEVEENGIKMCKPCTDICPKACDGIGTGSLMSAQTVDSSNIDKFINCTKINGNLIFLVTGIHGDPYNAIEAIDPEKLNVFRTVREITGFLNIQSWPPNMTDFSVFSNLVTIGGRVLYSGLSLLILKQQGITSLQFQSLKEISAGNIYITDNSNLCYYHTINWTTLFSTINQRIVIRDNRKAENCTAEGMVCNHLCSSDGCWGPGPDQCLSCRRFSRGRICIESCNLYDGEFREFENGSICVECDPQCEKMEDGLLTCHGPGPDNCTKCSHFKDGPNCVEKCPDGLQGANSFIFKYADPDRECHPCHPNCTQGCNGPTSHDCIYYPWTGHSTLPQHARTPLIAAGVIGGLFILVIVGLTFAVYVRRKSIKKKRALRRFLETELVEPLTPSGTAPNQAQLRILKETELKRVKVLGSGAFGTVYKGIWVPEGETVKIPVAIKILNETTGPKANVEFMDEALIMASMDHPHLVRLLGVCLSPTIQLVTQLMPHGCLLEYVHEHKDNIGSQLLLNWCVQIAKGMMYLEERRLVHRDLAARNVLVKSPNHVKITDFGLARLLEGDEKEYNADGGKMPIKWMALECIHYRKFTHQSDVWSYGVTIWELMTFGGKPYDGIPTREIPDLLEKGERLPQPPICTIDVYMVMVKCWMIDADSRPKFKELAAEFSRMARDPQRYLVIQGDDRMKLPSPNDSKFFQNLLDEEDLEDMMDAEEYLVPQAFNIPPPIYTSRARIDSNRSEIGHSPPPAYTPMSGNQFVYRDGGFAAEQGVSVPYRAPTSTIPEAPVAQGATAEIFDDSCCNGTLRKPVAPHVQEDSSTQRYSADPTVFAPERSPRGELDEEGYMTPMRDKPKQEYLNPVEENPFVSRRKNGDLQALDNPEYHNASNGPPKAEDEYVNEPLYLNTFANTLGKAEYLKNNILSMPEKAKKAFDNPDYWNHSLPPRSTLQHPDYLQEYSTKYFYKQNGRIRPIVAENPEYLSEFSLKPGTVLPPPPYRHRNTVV
# [15] = molecular target: Fibroblast growth factor receptor 1 (Homo sapiens) (UniProt P11362); assay: Inhibition of human FGFR1 assessed as residual activity at 1 uM using PolyEY as substrate in presence of 33P-ATP by ProQinase assay relative to control
# [16] = molecular target: Fibroblast growth factor receptor 3 (Homo sapiens) (UniProt P22607); assay: Inhibition of human FGFR3 assessed as residual activity at 1 uM using PolyEY as substrate in presence of 33P-ATP by ProQinase assay relative to control
# [17] = molecular target: Tyrosine-protein kinase FRK (Homo sapiens) (UniProt P42685); assay: Inhibition of human FRK assessed as residual activity at 1 uM using PolyEY as substrate in presence of 33P-ATP by ProQinase assay relative to control
# [18] = molecular target: Homeodomain-interacting protein kinase 2 (Homo sapiens) (UniProt Q9H2X6); assay: Inhibition of human HIPK2 assessed as residual activity at 1 uM using RBER-CHKtide as substrate in presence of 33P-ATP by ProQinase assay relative to control
# [19] = molecular target: Mitogen-activated protein kinase kinase kinase 9 (Homo sapiens) (UniProt P80192); assay: Inhibition of human MAP3K9 assessed as residual activity at 1 uM using RBER-GSK3 as substrate in presence of 33P-ATP by ProQinase assay relative to control
# [20] = molecular target: Dual specificity mitogen-activated protein kinase kinase 2 (Homo sapiens) (UniProt P36507); assay: Inhibition of human MEK2 assessed as residual activity at 1 uM using RBER-IRStide as substrate in presence of 33P-ATP by ProQinase assay relative to control
# [21] = molecular target: T1, Mitogen-activated protein kinase 12 (Homo sapiens) (UniProt P53778); assay: Inhibition of human P38gamma assessed as residual activity at 1 uM using RBER-IRStide as substrate in presence of 33P-ATP by ProQinase assay relative to control
# T1 sequence (whole entry): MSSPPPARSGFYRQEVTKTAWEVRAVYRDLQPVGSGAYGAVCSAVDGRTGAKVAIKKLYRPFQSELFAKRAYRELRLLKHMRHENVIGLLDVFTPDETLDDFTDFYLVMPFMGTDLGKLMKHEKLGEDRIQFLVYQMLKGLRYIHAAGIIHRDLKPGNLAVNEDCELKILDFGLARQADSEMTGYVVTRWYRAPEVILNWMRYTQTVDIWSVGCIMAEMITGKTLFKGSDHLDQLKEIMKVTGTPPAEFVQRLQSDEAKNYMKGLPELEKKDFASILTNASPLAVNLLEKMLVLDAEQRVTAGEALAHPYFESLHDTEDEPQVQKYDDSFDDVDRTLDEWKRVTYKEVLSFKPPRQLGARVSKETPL
# [22] = molecular target: STE20-like serine/threonine-protein kinase (Homo sapiens) (UniProt Q9H2G2); assay: Inhibition of human SLK assessed as residual activity at 1 uM using RB-S6P as substrate in presence of 33P-ATP by ProQinase assay relative to control
# [23] = Anti-inflammatory activity against human derived high respond PBMC cells assessed as inhibition in stimulated IL-13 cytokine release incubated for 2 hrs in the presence of LPS/SEB/aCD28 by Luminex based sandwich immunoassay; format: functional, cell-based
# [24] = Plasma concentration in Gal/LPS induced mouse at 3 mg/kg, po for 1 hrs; format: ADME, organism-based
# [25] = molecular target: 3-phosphoinositide-dependent protein kinase 1 (Homo sapiens) (UniProt O15530); assay: Inhibition of human PDK1 assessed as residual activity at 1 uM using bio-4xCHKT as substrate in presence of 33P-ATP by ProQinase assay relative to control
# 3-phosphoinositide-dependent protein kinase 1 (Homo sapiens), sequence (O15530 whole entry, looked up): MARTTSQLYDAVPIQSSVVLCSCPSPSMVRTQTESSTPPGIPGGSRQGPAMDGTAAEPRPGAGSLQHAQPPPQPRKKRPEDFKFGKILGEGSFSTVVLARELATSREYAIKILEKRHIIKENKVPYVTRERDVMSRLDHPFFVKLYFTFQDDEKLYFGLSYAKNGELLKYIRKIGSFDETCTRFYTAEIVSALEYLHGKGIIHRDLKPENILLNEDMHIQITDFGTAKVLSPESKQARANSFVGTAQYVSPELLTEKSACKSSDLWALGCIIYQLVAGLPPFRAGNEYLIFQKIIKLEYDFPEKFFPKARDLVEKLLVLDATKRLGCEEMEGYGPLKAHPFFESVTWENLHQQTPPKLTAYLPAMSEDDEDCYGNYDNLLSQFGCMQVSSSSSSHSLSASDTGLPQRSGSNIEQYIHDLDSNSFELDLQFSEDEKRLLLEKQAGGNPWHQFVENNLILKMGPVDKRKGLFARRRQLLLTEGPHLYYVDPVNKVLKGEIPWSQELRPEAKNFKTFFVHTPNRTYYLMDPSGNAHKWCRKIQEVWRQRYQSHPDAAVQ
structure (smiles),measurement,setting,value
O=C1c2ccc(Nc3ccc(F)cc3F)cc2CCc2ccc(OC[C@H](O)CO)cc21 [Skepinone-L],Activity,[1],100%
same,Activity,[2],100%
same,Activity,[3],100%
same,Activity,[4],97%
same,Activity,[5],100%
same,Activity,[6],100%
same,Activity,[7],100%
same,Activity,[8],100%
same,Activity,[9],90%
same,Activity,[10],103%
same,Activity,[11],89%
same,Activity,[12],102%
same,Activity,[13],83%
same,Activity,[14],106%
same,Activity,[15],117%
same,Activity,[16],102%
same,Activity,[17],111%
same,Activity,[18],104%
same,Activity,[19],90%
same,Activity,[20],99%
same,Activity,[21],102%
same,Activity,[22],39%
same,IC50,[23],1940 nM
same,concentration at 1 h,[24],240 nM
same,Activity,[25],97%
